Legend:
[1] = test system: MDA-MB-231 cells; test: TUNEL assay (apoptosis); format: cell-based, human; settings: MDA-MB-231, 24 h, concentration equal to IC50 values
Protocol: Having individuated two intracellular targets, we wondered whether the lead compounds could induce apoptosis in MDA-MB-231 cells. Thus, we performed a TUNEL assay. […] Indeed, the exposure to both compounds produced a green nuclear fluorescence, already at 24 h, in MDA-MB-231 cells (Figure 6, 3 and 4, panels B, CF^TM488A) as a consequence of the damaged DNA. […] The overlay channel (Figure 6, panels C) is also shown.
TUNEL assay was employed to assess the cells apoptosis, following the manufacturer’s protocols (CF™488A TUNEL Assay Apoptosis Detection Kit, Biotium, Hayward, CA, USA) with few revisions. Briefly, the cells were plated and then additional processed as previously described. DAPI (0.2 μg/mL, Sigma Aldrich, Milan, Italy) was used for nuclei staining. A fluorescence microscope (Leica DM 6000) was used for fluorescence detection (20× magnification). LAS-X software allowed acquiring and processing all the fluorescence images, which are representative of three separate experiments.

[2] = target: T1, F-actin (labeled rabbit muscle actin) (Oryctolagus cuniculus, UniProt P68135); test: In vitro F-actin depolymerization assay; format: biochemical; settings: 5 µM added after 1 h polymerization, monitored 1 h; vehicle 20,000 RFU
T1 construct: fluorescent label (chemical); purchased Abcam; host or cells: rabbit muscle
Protocol: Moreover, we performed the F-actin depolymerization assay to verify whether compounds 3 and 4 could induce the actin depolymerization as well as the LA does (Figure 5, panel B). For this purpose, we started the actin polymerization for one hour under the same experimental conditions used previously. Then, we added the compounds or the reference molecules at the concentration of 5 µM and monitored the reactions for an additional hour. […] The addition of CB was not able to produce the same effect of LA. […] Contrarily, both the compounds were able to induce an important depolymerizing effect on the F-actin, most evident in the first 7 min after the exposure. Particularly, compounds 3 and 4 produced final values of approximately 14,000 and 12,000 RFU, respectively. […] This combined effect leads to a disorganization of the intracellular actin network.
An Actin Polymerization/Depolymerization Assay Kit, purchased from Abcam, was employed to assess the ability of compounds 3 and 4 to interfere with the actin polymerization and depolymerization processes. To perform the essays, the manufacturer’s instructions were followed with some modifications. In particular, polymerization assay was carried out incubating in a white 96-well plate the reconstituted actin with supplemented Buffer G, compounds 3 and 4 and then Buffer P was added in order to induce actin polymerization. For the Actin Depolymerization Assay, the actin polymerization was first induced, incubating supplemented Buffers P and G at room temperature for one hour. Then, compounds 3 and 4 were added at a concentration of 5 μM. Latrunculin A (LA) and Cytochalasin B (CB) were utilized as positive control at a concentration of 5 μM. For both the assays, the assemblage of the actin filaments was defined by measuring the fluorescence (Ex/Em: 365/410 nm) in kinetic mode for 1 h at room temperature in a microplate reader.

[3] = test system: MDA-MB-231 cells; test: MTT assay, MDA-MB-231 cell viability; format: cell-based; settings: Homo sapiens, 72 h, mean ± standard deviation
Protocol: (§1) The inhibition of cancer cell growth exerted by the five considered compounds (1–5) has been evaluated in vitro against two models of breast cancer, namely the estrogen receptor positive (ER+) MCF-7 and the triple negative MDA-MB-231 human breast cancer cells (lacking ER, PR, and HER-2/Neu amplification), together with the normal counterpart, namely the non-malignant breast epithelial cells MCF-10A. […] Moreover, no effects were recorded against the MCF-7 cells, at least until the concentration of 100 μM. […] Thus, the two lead compounds were chosen for subsequent studies aiming at individuating the molecular mechanisms underlying the observed anticancer activity.
(§2) MTT assays (Sigma Aldrich (St.Louis, MO, USA)) were employed to evaluate the in vitro anticancer activities of all the studied compounds, as previously described. The compounds were tested at different concentrations (0.1-1-10-25-50-100 μM) for 72 h. The IC50 values were calculated from the percent (%) of control using GraphPad Prism 9 (GraphPad Software, La Jolla, CA, USA).

[4] = test system: MCF-7 cells; test: MTT assay, MCF-7 cell viability; format: cell-based; settings: Homo sapiens, MCF7, 72 h, mean ± standard deviation
Protocol: as §2

[5] = test system: MCF-10A cells; test: MTT assay, MCF-10A normal cell viability; format: cell-based, human; settings: 72 h, non-malignant breast epithelial cells, mean ± standard deviation
Protocol: as §1, §2

[6] = target: T2, hTopo II (Homo sapiens, UniProt P11388); test: hTopo II decatenation assay; format: biochemical; settings: compound at 10 μM, kDNA, agarose gel
T2 construct: purchased TopoGEN
Protocol: Next, we screened all the compounds for their activity against the hTopo II but, in this case, none of the tested compounds have been able to block the decatenation activity at the concentration of […] (Figure 3b, lanes 4 and 5). […] Indeed, two bands related to the DNA decatenation products are present at the bottom of the agarose gel, which denote the enzyme full activity, both in the control (only vehicle, Figure 3b, lane 3) and the tested compound reactions (Figure 3b, lanes 4–7).
Similarly, hTopo II decatenation assays were carried out, as indicated in the manufacturer’s procedures (TopoGEN, Port Orange, FL, USA) with some revisions.
hTopo II decatenation assays were performed in a final volume of 20 μL: 0.3 μg of kinetoplast DNA (kDNA) was added to a solution containing 1× assay buffer (50 mM Tris-HCl, pH of 8, 150 mM NaCl, 10 mM MgCl2, 0.5 mM Dithiothreitol (DTT), 30 μg/mL bovine serum albumin (BSA), 1 mM ATP) and the tested compounds. The mix was incubated for 15 min at 37 °C. Then, the reaction was started by adding 3 U of hTopo II and incubating at 37 °C for 1 h. Then, 5× stop buffer was added and the samples were treated as described in the previous paragraph. The aqueous phase was loaded on a 1% agarose gel containing 1× TAE buffer with EB (0.5 μg/mL) and visualized using an UV transilluminator.

T2 sequence (P11388 whole entry): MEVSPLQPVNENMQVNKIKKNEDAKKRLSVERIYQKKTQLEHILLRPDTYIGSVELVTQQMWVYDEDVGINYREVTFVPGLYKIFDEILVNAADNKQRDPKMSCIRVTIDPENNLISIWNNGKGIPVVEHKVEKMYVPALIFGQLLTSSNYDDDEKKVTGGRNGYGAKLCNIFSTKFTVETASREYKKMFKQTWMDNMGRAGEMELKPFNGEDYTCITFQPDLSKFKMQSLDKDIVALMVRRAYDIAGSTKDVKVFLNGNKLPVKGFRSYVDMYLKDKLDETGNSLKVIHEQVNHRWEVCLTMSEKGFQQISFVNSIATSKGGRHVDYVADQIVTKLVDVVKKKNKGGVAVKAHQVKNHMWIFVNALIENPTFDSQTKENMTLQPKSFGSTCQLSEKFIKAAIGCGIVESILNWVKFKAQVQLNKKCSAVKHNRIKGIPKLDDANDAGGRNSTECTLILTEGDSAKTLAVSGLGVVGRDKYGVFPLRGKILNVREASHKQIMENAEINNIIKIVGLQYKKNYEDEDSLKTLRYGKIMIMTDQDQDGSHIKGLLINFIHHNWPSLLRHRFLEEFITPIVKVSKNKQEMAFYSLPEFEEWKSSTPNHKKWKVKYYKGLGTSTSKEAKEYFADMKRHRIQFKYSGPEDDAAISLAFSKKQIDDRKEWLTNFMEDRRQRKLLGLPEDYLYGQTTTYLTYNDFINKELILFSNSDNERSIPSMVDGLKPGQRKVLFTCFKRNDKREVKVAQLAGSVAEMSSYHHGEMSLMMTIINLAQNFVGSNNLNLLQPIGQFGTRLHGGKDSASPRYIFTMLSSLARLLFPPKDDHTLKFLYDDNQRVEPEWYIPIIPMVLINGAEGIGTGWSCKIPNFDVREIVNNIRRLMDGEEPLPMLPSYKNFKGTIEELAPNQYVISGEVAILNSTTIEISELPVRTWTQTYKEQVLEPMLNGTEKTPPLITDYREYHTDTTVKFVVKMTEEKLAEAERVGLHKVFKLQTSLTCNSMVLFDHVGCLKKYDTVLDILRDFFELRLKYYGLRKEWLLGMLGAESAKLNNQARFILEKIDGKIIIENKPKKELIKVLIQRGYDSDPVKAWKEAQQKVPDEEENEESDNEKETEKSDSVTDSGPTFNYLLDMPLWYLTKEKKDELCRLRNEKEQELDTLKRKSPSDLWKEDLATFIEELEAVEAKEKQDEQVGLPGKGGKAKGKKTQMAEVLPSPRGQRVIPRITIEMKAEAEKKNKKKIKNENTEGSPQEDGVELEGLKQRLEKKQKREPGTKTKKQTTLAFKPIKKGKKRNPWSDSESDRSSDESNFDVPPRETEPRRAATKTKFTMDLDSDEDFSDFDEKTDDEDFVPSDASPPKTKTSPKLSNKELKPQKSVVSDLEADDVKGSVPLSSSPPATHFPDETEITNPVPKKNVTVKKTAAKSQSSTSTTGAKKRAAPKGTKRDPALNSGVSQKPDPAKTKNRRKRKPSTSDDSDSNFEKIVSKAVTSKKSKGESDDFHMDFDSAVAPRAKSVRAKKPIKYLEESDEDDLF

Row | F-actin depolymerization, final fluorescence value of reaction curve [2] | IC50 [3] [µM] | IC50 [4] [µM] | Inhibition of hTopo II decatenation activity [6] | Structure (SMILES) | Apoptosis induction (TUNEL, green nuclear fluorescence) [1] | IC50 [5] [µM] | IC50 ([5]; Homo sapiens, MCF-10A) [µM]
1 | approximately 14,000 RFU | 1.44 ± 0.97 | 27.6 ± 0.71 | no inhibitory activity | Cc1ccc(C)c2c1c1cc(B(O)O)ccc1n2C(=O)OC(C)(C)C [Compound 3] | able to trigger apoptosis | 51.9 ± 0.88 | ~52
2 | ~12,000 RFU | 0.73 ± 0.74 | 19.8 ± 1.12 | no inhibitory activity | Cc1ccc(C)c2c1c1cc(O)ccc1n2C(=O)OC(C)(C)C [Compound 4] | able to trigger apoptosis | – | > 100

Source: publication PMC10051477, “5,8-Dimethyl-9H-carbazole Derivatives Blocking hTopo I Activity and Actin Dynamics” (Pharmaceuticals, 2023)
